Data set [1] relates to MX-1 human mammary carcinoma. Briefly: Tumor cell growth inhibition in vitro. In kind it is cell-based. The procedure: (§1) The cells were cultured at an initial density of 2-5×10^4 cells per ml. […] For solid tumor cells growing in a monolayer (such as MCF-7/Adr), cytotoxicitiy of the drug was determined in 96-well microtiter plates by using the sulforhodamine B method as described by Skehan et al (23) for measuring the cellular protein content. For cells that were grown in suspension (such as CCRF-CEM and its sublines), cytotoxicitiy was measured by using the 2,-3-bis(2-methoxy-4-nitro-5-sulfophenyl)-5carboxanilide)-2H terazodium hydroxide (XTT)-microculture tetrazonium method (24) in duplicate in 96-well microtiter plates. For both methods, the absorbance of each well was measured with a microplate reader (EL-340, Bio-Tek, Burlington, Vt.). Each run entailed six or seven concentrations of the tested drugs. Dose-effect relationship data were analyzed with the median-effect plot (25) by using a previously described computer program (26).

Data set [2] concerns UL-3-C ovarian adenocarcinoma. Briefly: Tumor cell growth inhibition in vitro. It counts as cell-based, human. On the procedure:
(§2) The fresh medium containing each drug was replenished every 7-14 days. […] In each case ,the drug-exposed cells were resuspended in fresh media for a minimum of 4 days before the experiments for the cell-growth inhibition was carried out.
(§3) The cells were cultured at an initial density of 2-5×10^4 cells per ml. They were maintained in a 5% CO2-humidified atmosphere at 37° C. in RPMI mediun 1640 (GIBCO/BRL) containing penicillin (100 units/ml), streptomycin (100 μg/ml) (GIBCO/BRL), and 5% heat-inactivated fetal bovine serum. For solid tumor cells growing in a monolayer (such as MCF-7/Adr), cytotoxicitiy of the drug was determined in 96-well microtiter plates by using the sulforhodamine B method as described by Skehan et al (23) for measuring the cellular protein content. For cells that were grown in suspension (such as CCRF-CEM and its sublines), cytotoxicitiy was measured by using the 2,-3-bis(2-methoxy-4-nitro-5-sulfophenyl)-5carboxanilide)-2H terazodium hydroxide (XTT)-microculture tetrazonium method (24) in duplicate in 96-well microtiter plates. For both methods, the absorbance of each well was measured with a microplate reader (EL-340, Bio-Tek, Burlington, Vt.). Each run entailed six or seven concentrations of the tested drugs. Dose-effect relationship data were analyzed with the median-effect plot (25) by using a previously described computer program (26).

The next data set deals with B16 Melanoma. In kind it is in vivo, murine. As to conditions: B16 Melanoma, i/p, maximal tolerated doses.
Data set [3] can be described thus: Body-weight decrease and lethality in tumor-bearing nude mice. Particulars: nude mice. On the procedure: (§4) Depending on the tumor type, treatment started on day 10 to day 21 when subcutaneous tumor size reached 35-200 mm^3, except otherwise indicated. Tumor size and body-weight were recorded every other day (Q2D) and, for humane reasons, the animals were sacrificed when tumor size reached ≧10% of body-weight. Each group, including untreated control, consisted of 3-5 animals unless otherwise indicated.
Essential features of useful cancer therapeutic agent involve not only high efficiency against cancer but also low toxicity toward the host, especially toward vital organs or functions [i.e. wide therapeutic window or high therapeutic index (LD50/ED50)].
(§5) Human tumor cells (5×10^6) or tumor tissue (30-50 mg) were implanted s.c. flank in nu/nu mice (Charles River Laboratories, Wilmington, Mass.). When tumor grew to a specified size, treatment was started by every-other day×5 with 6 hr i.v.-infusion, unless otherwise indicated. Tumor volume was measured with calipers in three dimensions (length×width×height or width). Body-weight changes and lethality were monitored every other day.

Data set [4] relates to UL-3-B/Taxol.
For data set [5], the system named is MX-1 mammary carcinoma xenograft. Particulars: MX-1, i.p., ref 19 (Table 4).
Data set [6] has as its system MCF-7 human mammary adenocarcinoma. In words: Tumor cell growth inhibition in vitro. Particulars: Homo sapiens, MCF7, MCF-7; read-out: IC50. It counts as cell-based. On the procedure: as §1
The test system of the next data set is MCF-7/Adr. Briefly: Tumor cell growth inhibition in vitro. In kind it is cell-based, human. Particulars: Homo sapiens, NCI/ADR-RES, MCF-7/Adr. The procedure: as §1
Another data set deals with CCRF-CEM/VBL. Briefly: Relative potency in vitro, very highly resistant MDR cells. It counts as cell-based, human. As to conditions: Homo sapiens, CCRF-CEM, read-out: CCRF-CEM/VBL IC50 in μM. The procedure:
as §3

The subject of another data set is CCRF-CEM/VBL1000. In words: Cell growth inhibition, resistant subline. It counts as cell-based. As to conditions: Homo sapiens. On the procedure:
as §2, §3

The subject of data set [7] is A549 lung carcinoma xenograft. In words: Human tumor xenograft in nude mice. Particulars: A549, i.v. infusion. In kind it is in vivo. The procedure:
as §4
(§6) Athymic nude mice bearing the nu/nu gene were used for all human tumor xenografts. Outbred, Swiss-background mice were obtained from Charles River Laboratories. Male mice 8 weeks or older weighing 22 g and up were used for most experiments. The drug was administered via the tail vein for 6 hr.-i.v. infusion. Each individual mouse was confined in a perforated Falcon polypropylene tube restrainer for drug administration. Tumor volume was assessed by measuring length×width×height (or width) using a caliper. The programmable Harvard PHD2000 syringe pump (Harvard Apparatus) with multi-track was used for i.v. infusion. […] All animal studies were conducted in accordance with the guidelines of the National Institutes of Health “Guide for the Care and Use of Animals” and the protocol approved by the Memorial Sloan-Kettering Cancer Center's Institutional Animal Care and Use Committee. In keeping with the policy of this committee for the humane treatment of tumor-bearing animals, mice were euthanized when tumors reached ≧10% of their total body weight.
as §5
(In general: A xenograft is tissue or cells of one species grown in another, often human tumour cells in immunodeficient mice.)

For data set [8], the system named is PC-3 prostate adenocarcinoma xenograft. Briefly: Human tumor xenograft in nude mice. In kind it is in vivo. Particulars: PC-3, i.v. infusion. On the procedure:
as §4, §6, §5

Data set [9] relates to MCF-7/Adr mammary xenograft. In words: Human tumor xenograft in nude mice. It counts as in vivo. Particulars: i.v. infusion.
The subject of data set [10] is K562 chronic myelocytic leukemia xenograft. In words: Human tumor xenograft in nude mice. It counts as in vivo. On the procedure:
FIG. 34 depicts tumor size in nude mice bearing human leukemia […] tumor following 6 mg/kg C-15-Aza-EpoB, Q2D×6 and 30 mg/kg dEpoF, Q2ED×6 (i.v. infusion […].). K562 tumor cells (1×10^7 in 0.2 mL) were inoculated to nude mice on day 0. Mice were treated with 6 mg/kg aza-EpoB, 6 h-i.v. infusion on days 20, 22, 24, 26, 28 and 30 (Δ, n=3). The same group of mice were then treated with 30 mg/kg dEpoF, 6 h-i.v. infusion on days 42, 44, 46, 48, 52, and 54 (Δ, n=3). […] The control mice (∘, n=3) received vehicle only.
K562 tumor cells (1×10^7, in 0.2 ml/mouse) were implanted s.c. on day 0. […] The control mice (∘, n=4) received vehicle, Cremophor-ethanol (1:1), only. The vertical bars indicate mean tumor size in mm^3±S.E.
as §4, §6, §5

Data set [11] relates to UL-3-B/Taxol. Briefly: cells. As to conditions: Homo sapiens, UL-3-B/Taxol.

Structures can show the parent of a compound that is named as a salt. Where two headings read alike, the source gives them in different places.

With `C/C(=C\c1csc(C)n1)[C@@H]1C[C@@H]2O[C@]2(C)CCC[C@H](C)[C@H](O)[C@@H](C)C(=O)C(C)(C)[C@@H](O)CC(=O)O1` [EpoB, epothilone B, reference compound], the figures for the IC50 (in data set [1]; in [2] (read-out: IC50); in the data set on UL-3-B/Taxol [4] (UL-3-B/Taxol)) were 1.84 nM, 0.58 nM and 1.24 nM, respectively. Further, the “Therapeutic Effect Rank Order” value is listed as “dEpoB>Taxol>>EpoB” in the data set on B16 Melanoma and “dEpoB>Camptothecin>Taxol>VBL, EpoB” in [5]. In [3], the “drop in body-weight that led to lethality” value is listed as 14-20%. Further, the “cross-resistance (fold of resistance vs parent cell line)” value in the data set with UL-3-B/Taxol [4] (UL-3-B/Taxol vs UL-3-C) is on record as 2.1 x.
With `CC[C@]1(O)C[C@@H]2CN(CCc3c([nH]c4ccccc34)[C@@](C(=O)OC)(c3cc4c(cc3OC)N(C)[C@H]3[C@@](O)(C(=O)OC)[C@H](OC(C)=O)[C@]5(CC)C=CCN6CC[C@]43[C@@H]65)C2)C1` [Vinblastine, vinblastine sulfate, reference compound], the IC50 in [6] amounted to 9.4 nM; in the data set on MCF-7/Adr it was 25 nM; in data set [2] (Homo sapiens), 0.37 nM; with CCRF-CEM/VBL, 2.02 µM; with CCRF-CEM/VBL1000 it was 974 nM; in the data set with UL-3-B/Taxol [11] it was 3.1 nM. Further, the “Therapeutic Effect Rank Order” value was “Taxol, dEpoB, VBL>VP-16” in data set [7]; “Taxol, VBL>dEpoB>>VP-16” in data set [8]; “dEpoB>>VP-16, Taxol>VBL, Adriamycin” in data set [9]; “dEpoB>>>VBL> Taxol> Adriamycin” in data set [10] (K562, i.v. infusion, FIG. 3 & 4); “dEpoB>Camptothecin>Taxol>VBL, EpoB” in [5]. In addition, in data set [10] (K562, dEpoB 30 mg/kg, Taxol 20 mg/kg 6 hr i.v. infusion, Adriamycin 3 mg/kg, vinblastine 2.5 mg/kg i.v., every other day from day 20 (FIG. 36)), the therapeutic effect result is “only partial curative or remissive effects”.

The values are drawn from patent US6867305B2, “Synthesis of epothilones, intermediates thereto and analogues thereof” (Sloan-Kettering Institute for Cancer Research, priority 1996, dated 2005).
